Marks after values point to notes of the source that are not given here.
Key:
neutrophils = settings: compared with lipoxin A4; cited from earlier work
[1] = test system: endotoxin-induced uveitis in rats; experiment: Endotoxin-induced uveitis in rats: ocular neutrophil (PMN) content by myeloperoxidase activity; format: in vivo, female Lewis rats; settings: 24 h post endotoxin; for Myeloperoxidase (x ± standard deviation): 5 μL topical ocular at endotoxin injection and 4 h later, vehicle 164 ± 46
Procedure: Compound 1 was evaluated for its ability to suppress neutrophil influx into the rat eye in a model of endotoxin-induced uveitis. The compound was prepared at concentrations of 0.01%, 0.1%, 1.0% w/v in an ophthalmic suspension vehicle, and dexamethasone (Sigma-Aldrich Company, St. Louis, Mo.) formulated in the same vehicle served as reference compound. Uveitis was induced by subplantar injection of endotoxin (200 μg in 0.1 mL saline) in the right hind paw of female Lewis rats (5/group). Test compound of vehicle (5 μL) was administered topically to each eye of the experimental animals at the time of endoxtoxin injection and again 4 hours later. Twenty four hours post endotoxin injection, animals were sacrificed by CO2 inhalation, and total ocular neutrophil (PMN) content was assessed indirectly by determination of myeloperoxidase activity. Ocular PMN content in each group was then compared with that observed in the vehicle-treated group using Dunnet's t-test.

rabbit model of dry eye [2] = experiment: Rabbit model of dry eye (lacrimal gland ConA injection followed by desiccation): corneal staining with methylene blue; format: in vivo, New Zealand white rabbits; settings: 50 μl topical twice a day, ConA-injected rabbit eyes, 72 h desiccation
Procedure: Compound 1 was evaluated in a rabbit model of dry eye. New Zealand white rabbits (approximately 2.5 kg; obtained from Myrtle's Rabbitry, Thompson Station, Tenn.) were randomized and dosed topically twice a day with either 50 μl of compound 1 formulated in 0.064%/BSS® at concentrations of 1, 10, or 100 μM, or with 0.064%/BSS® vehicle. After 24 h the rabbits were anesthetized by subcutaneous administration of ketamine hydrochloride (30 mg/kg) and xylazine (6 mg/kg) and each rabbit received bilateral injections of Conconavilin A (ConA) (300 μg/30 μl) or saline (30 μl). Desiccation was initiated one day following lacrimal gland injection by placing conscious animals in an environmental chamber (20-30% humidity, […]). Following 72 hours of exposure to environment, the animals were assessed for corneal staining upon exposure of the cornea to the dye methylene blue; less staining indicates less damage to the cornea. The rabbits were anesthetized by subcutaneous administration of ketamine hydrochloride (30 mg/kg) and xylazine (6 mg/kg). Sutures were placed in each upper and lower eyelid and lifted to form a corneal/conjunctival cup. Methylene blue dye (1 mL, 1% in distilled water) was added to the cup for five minutes and the excess removed by washing with 200 mL of BSS®. The contralateral eye was then stained using the same procedure. Rabbits were euthanized immediately following the staining procedure and the eyes were excised. The corneas were isolated and a 9.5 mm punch of the cornea was placed overnight in 2 mL of acetone/saturated sodium sulfate (7:3 v/v). The concentration of the extracted dye was determined spectrophotometrically by measuring its absorbance at λ=660 nanometers (A660). Percent inhibition was calculated as {1−[(A660test item−A660Normal)/(A660BSS−A660Normal)]}×100, where A660test item is the absorbance of dye from ConA-injected eyes dosed with compound 1, A660Normal is the absorbance of dye from saline-injected eyes, and A660BSS is the absorbance of dye in ConA-injected eyes dosed with 0.064% ethanol/BSS® solution vehicle. A higher percent inhibition of staining indicates more protection of the cornea from damage.
(§1) The % inhibition of corneal staining and TBUT data are presented below in table 1, with 15S-HETE (Biomol Research Laboratories, Plymouth Meeting, Pa.) treatment of ConA-injected eyes used as a positive control.

rabbit model of dry eye [3] = experiment: Rabbit model of dry eye (lacrimal gland ConA injection followed by desiccation): tear breakup time (TBUT); format: in vivo, New Zealand white rabbits; settings: ConA-injected rabbit eyes, baseline = saline-injected, vehicle-treated eyes
Procedure: A second group of animals was evaluated for tear film quality by measuring each animal's tear breakup time (TBUT). Using the same experimental protocol as above for inducing rabbit ocular damage, TBUT was determined daily by instilling 5 μL of sodium fluorescein into the cul de sac and manually blinking the lids to distribute the fluroescein within the tear film. Under slit lamp observation, the eye was held open and the time whereby one or more black spots or streaks appeared in the precorneal tear film was recorded. The rabbits were euthanized 3 days following ConA injection. Larger TBUT values indicate better tear film quality and more protection from ocular damage. TBUT data is expressed as % of baseline, with baseline TBUT being that observed for saline-injected, vehicle-treated eyes.
as §1

SMILES | inhibition of LTB4-induced chemotaxis of neutrophils (neutrophils) | % inhibition (myeloperoxidase / ocular PMN content vs vehicle) ([1]; 0.1 % w/v topical ocular) | Myeloperoxidase (x ± standard deviation) ([1]; 0.1 % w/v) [μM/min/100 mg] | % Inhibition of Corneal Staining, ±S.D. (rabbit model of dry eye [2]; 1 μM) | TBUT, % of Baseline, ±S.D. (rabbit model of dry eye [3]; 1 μM topical twice a day) | other results
CCCCC[C@H](O)[C@H](O)CO [Compound 2] | as potently as lipoxin A4 |  |  |  |  | 
C[C@@H]1C[C@H]2[C@@H]3CCC4=CC(=O)C=C[C@]4(C)[C@@]3(F)[C@@H](O)C[C@]2(C)[C@@]1(O)C(=O)CO [Dexamethasone, dexamethasone, reference compound] |  | 91* % | 15 ± 7 |  |  | 
CCCCC[C@H](O)/C=C/C=C\C/C=C\C/C=C\CCCC(=O)O [Compound 15S-HETE, 15S-HETE, reference compound] |  |  |  | 77 ± 18^b % | 54 ± 21^b % of Baseline | 
COC(=O)CCC[C@H](O)[C@H](O)CO [Compound 1] | as potently as lipoxin A4 | 2% | 161 ± 37 | 75 ± 12^b % | 67 ± 17^b % of Baseline | % inhibition (myeloperoxidase / ocular PMN content vs vehicle) ([1]; 0.01 % w/v topical ocular): 13%; Myeloperoxidase (x ± standard deviation) ([1]; 0.01 % w/v): 143 ± 64 μM/min/100 mg; % inhibition (myeloperoxidase / ocular PMN content vs vehicle) ([1]; 1.0 % w/v topical ocular): 41* %; Myeloperoxidase (x ± standard deviation) ([1]; 1.0 % w/v): 97 ± 35 μM/min/100 mg; % Inhibition of Corneal Staining, ±S.D. (rabbit model of dry eye [2]; 10 μM): 54 ± 9^b,c %; % Inhibition of Corneal Staining, ±S.D. (rabbit model of dry eye [2]; 100 μM): 38 ± 34^b,c %; TBUT, % of Baseline, ±S.D. (rabbit model of dry eye [3]; 10 μM topical twice a day): 45 ± 17^b % of Baseline; TBUT, % of Baseline, ±S.D. (rabbit model of dry eye [3]; 100 μM topical twice a day): 51 ± 18^b % of Baseline
